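Briefly, cells in 96-well plates were exposed to five compound concentrations for 48 h, and endpoints were estimated by linear interpolation. GI50: concentration for 50% inhibition of growth.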 Active and inactive are the calls of the source. Cut-off read from the data, not from the text of the source: active = GI50 up to about 1.1 µM and inactive = higher.
Key:
Test in all cases: NCI tumour cell line growth inhibition, 48 h
[1] = test system: A498
[2] = test system: A549
[3] = test system: COLO 205
[4] = test system: DLD-1
[5] = test system: HOP-62
[6] = test system: K562
[7] = test system: NCI-H226
[8] = test system: NCI-H23
[9] = test system: NCI-H460
[10] = test system: RXF 393
[11] = test system: SF-268
[12] = test system: SF-295
[13] = test system: SF-539
[14] = test system: SK-MEL-28
[15] = test system: UO-31
[16] = test system: EKVX
[17] = test system: HOP-92

Measured: GI50

COc1cccc2c1C1(O)C2CCCC12OCCCO2 (centres undefined)
inactive: [1] > 100 µM | [2] > 100 µM | [3] > 100 µM | [4] > 100 µM | [5] > 100 µM | [6] > 100 µM | [7] > 100 µM | [8] > 100 µM | [9] > 100 µM | [10] > 100 µM | [11] > 100 µM | [12] > 100 µM | [13] > 100 µM | [14] > 100 µM | [15] > 100 µM

Nc1ccccc1/C(O)=C1/CCOC1=O
inactive: [1] > 100 µM | [2] > 100 µM | [3] > 100 µM | [4] > 100 µM | [16] > 100 µM | [5] > 100 µM | [17] > 100 µM | [6] > 100 µM | [7] > 100 µM | [8] > 100 µM | [9] > 100 µM | [11] > 100 µM | [12] > 100 µM | [14] > 100 µM | [15] > 100 µM

O=[N+]([O-])C=C1c2ccccc2-c2ccccc21
inactive: [1] 19.6 µM | [2] 19.9 µM | [3] 1.86 µM | [4] 2.84 µM | [16] 20.4 µM | [5] 17.5 µM | [6] 2.52 µM | [7] > 10 µM | [8] 16.8 µM | [9] 20.1 µM | [10] 17.5 µM | [11] 19.9 µM | [12] 19 µM | [13] 17.5 µM | [14] 17.2 µM | [15] 15.2 µM

COc1ccc(C(O)C(c2ccc(OCc3ccccc3)cc2)c2ccc(OCc3ccccc3)cc2)cc1 (centres undefined)
inactive: [2] > 100 µM | [3] > 100 µM | [4] > 100 µM | [16] > 100 µM | [5] > 100 µM | [17] > 100 µM | [6] > 100 µM | [7] > 100 µM | [8] > 100 µM | [9] > 100 µM | [10] > 100 µM | [11] > 100 µM | [12] > 100 µM | [13] > 100 µM | [14] > 100 µM | [15] > 100 µM

CCC(C)CN1C(=O)NC(C)(Cc2ccccc2)C1=O (centres undefined)
inactive: [2] > 100 µM | [3] > 100 µM | [4] > 100 µM | [16] > 100 µM | [5] > 100 µM | [17] > 100 µM | [7] > 100 µM | [8] > 100 µM | [9] > 100 µM | [10] > 100 µM | [11] > 100 µM | [12] > 100 µM | [13] > 100 µM | [14] > 100 µM | [15] > 100 µM

O=C(CCCC(=O)Nc1ccc(Cl)cc1Cl)CC(=O)c1ccc2ccccc2c1
inactive: [2] > 100 µM | [3] > 100 µM | [4] > 100 µM | [16] > 100 µM | [5] > 100 µM | [17] 96.6 µM | [6] > 100 µM | [7] > 100 µM | [8] > 100 µM | [9] > 100 µM | [10] 10.8 µM | [11] > 100 µM | [12] > 100 µM | [13] > 100 µM | [14] > 100 µM | [15] > 100 µM

O=C(CCCCCCCCCCc1ccccc1)C1=C(O)CCCC1=O
inactive: [2] 18.4 µM | [3] 17.6 µM | [4] 41.1 µM | [16] 41.3 µM | [5] 43.7 µM | [17] 11.3 µM | [6] 19.8 µM | [7] 26.1 µM | [8] 20.2 µM | [9] 18.9 µM | [10] 25.1 µM | [11] 17.5 µM | [12] 22.8 µM | [13] 41.9 µM | [14] 40.4 µM | [15] 22 µM
